In PubChem BioAssay AID977605 (Broad Institute, 2014) one finds activation data, which are given here for 62 compounds.

Activity calls are given as the source filed them.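 Rule for the calls: active = fitted curve reaches 40% activation below the top valid tested dose, in every test run; inconclusive = test runs disagree on the call; inactive = the rest, including effects opposite to the expected direction.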

The first assay in a line: E-selectin inducers in HUVECs, dose response, imaging, HUVEC, cherry-picked samples (AID 977605).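 Note: signal is the share of imaged cells scored positive for E-selectin.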 As to conditions: HUVEC E-selectin immunostaining, at 19.5 µM (top of the series), percent of TNF-alpha response over vehicle.
For `C[C@@H]1CN([C@H](C)CO)C(=O)Cc2cc(NC(=O)C3CC3)ccc2O[C@@H]1CN(C)Cc1ccc2c(c1)OCO2`, the activation is -0.006% (inactive). On the same count and under the same terms, the result for `C[C@@H]1CN([C@@H](C)CO)C(=O)Cc2cc(NC(=O)c3ccncc3)ccc2O[C@H]1CN(C)Cc1ccc(Oc2ccccc2)cc1` reads 0.031% (inactive); that for `Cc1ccc(O)c([C@H](CCN(C(C)C)C(C)C)c2ccccc2)c1`, -0.269% (inactive). With `COc1ccc(CN(C)C[C@@H]2Oc3c(NC(=O)Nc4ccc(F)cc4)cccc3C(=O)N([C@@H](C)CO)C[C@H]2C)cc1`, the activation was 8.09% (inactive). Turning to `C[C@H](CO)N1C[C@H](C)[C@H](CN(C)S(=O)(=O)c2ccc(Cl)cc2)Oc2ccc(NC(=O)Cc3ccccc3)cc2C1=O`, the activation is -0.076% (inactive). Take `COc1ccc(NC(=O)N(C)C[C@H]2Oc3ccc(NC(=O)c4ccncc4)cc3CC(=O)N([C@H](C)CO)C[C@@H]2C)cc1`: the activation is -0.048% (inactive). As for `CCOC(=O)C1(Cc2cccc(OC)c2)CCN(Cc2ccccc2)CC1`, the activation is 0.067% (inactive). On the same count and under the same terms, the result for `C/C(=N\NC(=O)c1cc(C(C)C)[nH]n1)c1ccco1` reads 0.133% (inactive).

`C[C@H](CO)N1C[C@H](C)[C@@H](CN(C)Cc2ccc(Oc3ccccc3)cc2)Oc2ccc(NC(=O)Nc3ccc(C(F)(F)F)cc3)cc2CC1=O`: the activation was -0.23% (inactive). As to `CCn1c(CCC(=O)O)nc2cc(S(=O)(=O)N3CCOCC3)ccc21`, the activation is -0.184% (inactive).

For the compound `CC(C)CC#Cc1cnc2c(c1)C(=O)N([C@H](C)CO)C[C@@H](C)[C@H](CN(C)C(=O)c1ccc3c(c1)OCO3)O2`, the activation is -0.021% (inactive). On the same count and under the same terms, the result for `C[C@@H]1CN([C@H](C)CO)C(=O)Cc2cc(NS(=O)(=O)c3ccccc3)ccc2O[C@@H]1CN(C)Cc1ccc(C(F)(F)F)cc1` reads 0.93% (inactive); that for `Cc1ccc(S(=O)(=O)Nc2cc(-c3ccccc3)nn2C)cc1Cl`, -0.007% (inactive). Turning to `CO[C@@H]1CN(C)C(=O)c2ccc(NC(=O)c3nc4ccccc4s3)cc2OC[C@@H](C)N(Cc2cncnc2)C[C@@H]1C`, the activation is -0.082% (inactive). With `C[C@@H]1CN([C@@H](C)CO)C(=O)c2cccc(NC(=O)C3CC3)c2O[C@H]1CN(C)Cc1ccccc1`, the activation was 0.172% (inactive). Take `C[C@H](CO)N1C[C@H](C)[C@@H](CN(C)S(C)(=O)=O)Oc2ccc(NC(=O)CCCCCC(=O)Nc3ccccc3N)cc2CC1=O`: the activation is 0.149% (inactive).

In the case of `CCCC#Cc1ccc2c(c1)O[C@@H](CN(C)CCC)[C@@H](C)CN([C@@H](C)CO)S2(=O)=O`, the activation is -0.152% (inactive). Same read-out and setting: the result for `Cc1nn(CCS(=O)(=O)c2ccc(Cl)cc2)c(C)c1Br` reads 0.08% (inactive); that for `C[C@H]1CN([C@@H](C)CO)C(=O)c2cc(N(C)C)ccc2O[C@H]1CN(C)C(=O)Nc1ccc2c(c1)OCO2`, 2.2% (inactive); that for `CCc1cc(C(=O)Nc2nc(-c3ccccn3)cs2)sc1C`, 0.665% (inactive). Still for that read-out and setting: the result for `COc1ccc(S(=O)(=O)Nc2ccc3c(c2)C(=O)N([C@@H](C)CO)C[C@@H](C)[C@@H](CN(C)C(=O)Nc2cccc4ccccc24)O3)cc1` reads -0.103% (inactive). On the same count and under the same terms, the result for `CN(C)c1cccc(C(=O)NCc2ccc3c(c2)OCO3)c1` reads 8.26% (inactive); that for `COc1ccc(NC(=O)N(C)C[C@H]2Oc3ccc(N(C)C)cc3CC(=O)N([C@H](C)CO)C[C@@H]2C)cc1`, -0.19% (inactive); that for `C[C@H](CO)N1C[C@H](C)[C@@H](CN(C)Cc2ccc(-c3ccccc3)cc2)Oc2c(NC(=O)Nc3cccc4ccccc34)cccc2C1=O`, 1.82% (inactive). With `C[C@@H]1CN([C@@H](C)CO)C(=O)c2cc(NS(=O)(=O)c3cccs3)ccc2O[C@@H]1CN(C)S(C)(=O)=O`, the activation is -0.005% (inactive). Still for that read-out and setting: the result for `CC(C)NC(=O)N(C)C[C@@H]1Oc2ccc(NS(=O)(=O)c3cccs3)cc2CC(=O)N([C@@H](C)CO)C[C@H]1C` reads 0.096% (inactive); that for `Cc1noc(C)c1NC(=O)N(C)C[C@H]1Oc2ccc(NS(=O)(=O)c3c(C)noc3C)cc2C(=O)N([C@H](C)CO)C[C@@H]1C`, -0.221% (inactive); that for `CN(C1CCCCC1)S(=O)(=O)c1cn(C)c(=O)n(C)c1=O`, -0.175% (inactive). On the same count and under the same terms, the result for `Cc1ccc(N2C(=O)[C@@H]3C(c4cccnc4)=NO[C@@H]3C2=O)c(C)c1` reads 0.363% (inactive). For `Cc1ccc(S(=O)(=O)N(C)C[C@@H]2Oc3ccc(N(C)C)cc3C(=O)N([C@H](C)CO)C[C@H]2C)cc1`, the activation is 0.022% (inactive). The same measure, in the same setting: the result for `COCC(=O)N(C)C[C@H]1Oc2cc(-c3ccc(F)cc3)ccc2S(=O)(=O)N([C@@H](C)CO)C[C@H]1C` reads -0.091% (inactive); that for `C[C@@H]1CN([C@H](C)CO)C(=O)c2cccc(NC(=O)Nc3ccc(F)cc3)c2O[C@H]1CN(C)Cc1ccncc1`, -0.015% (inactive). The same measure, in the same setting: the result for `CCN(CC)c1ccc(S(=O)(=O)N2CCOCC2)cc1NC(=O)CN1C(=O)NC2(CCCC2)C1=O` reads 4.54% (inactive); that for `COc1ccc(NC(=O)c2cc(S(=O)(=O)N3CCCCC3)c[nH]2)cc1`, 0.335% (inactive); that for `CC(C)NC(=O)N(C)C[C@@H]1Oc2ccc(NC(=O)CCN3CCOCC3)cc2C(=O)N([C@@H](C)CO)C[C@H]1C`, 0.429% (inactive). As for `COc1ccc(-c2nc3cc(C)c(Br)c(C)n3c2CC(C)(C)C)cc1OC`, the activation is 0.052% (inactive). Take `C[C@@H]1CN([C@H](C)CO)C(=O)c2cc(NC(=O)CCN3CCOCC3)ccc2O[C@H]1CN(C)C(=O)Nc1ccc(C(F)(F)F)cc1`: the activation is -0.038% (inactive). On to `C[C@H]1CN([C@@H](C)CO)C(=O)c2cccc(NC(=O)C3CC3)c2O[C@H]1CN(C)Cc1ccccc1`, for which the activation was 1.36% (inactive). Regarding `CCN(CC)C(=O)c1cn(-c2cccc(OC)c2)c(=O)c2ccccc12`, the activation was -0.108% (inactive). Still for that read-out and setting: the result for `C[C@H](CO)N1C[C@H](C)[C@@H](CN(C)Cc2ccc(Oc3ccccc3)cc2)Oc2ccc(NC(=O)Nc3ccc(C(F)(F)F)cc3)cc2C1=O` reads 0.27% (inactive). The same measure, in the same setting: the result for `CCn1c(SCC(=O)Nc2cccc(C)c2)nc2c(c1=O)SC(C)C2` (configuration not stated) reads -0.269% (inactive); that for `C[C@@H]1CN([C@H](C)CO)C(=O)c2cc(NC(=O)Cn3cnnn3)ccc2O[C@H]1CN(C)S(=O)(=O)c1ccccc1`, 0% (inactive).

For the compound `C[C@@H]1CN([C@@H](C)CO)C(=O)Cc2cc(NC(=O)Nc3ccc(F)cc3)ccc2O[C@H]1CN(C)Cc1ccc(C(=O)O)cc1`, the activation was -0.089% (inactive).

As to `C[C@H](CO)N1C[C@H](C)[C@H](CN(C)Cc2ccc(Cl)c(Cl)c2)Oc2c(NS(=O)(=O)c3cn(C)cn3)cccc2C1=O`, the activation was -0.123% (inactive). On the same count and under the same terms, the result for `C[C@H]1CN([C@@H](C)CO)C(=O)c2cccc(NC(=O)c3nc4ccccc4s3)c2O[C@@H]1CN(C)Cc1ccc(C(F)(F)F)cc1` reads -0.231% (inactive). Still for that read-out and setting: the result for `COc1ccc(S(=O)(=O)N(C)C[C@H]2Oc3ccc(NC(=O)c4ccncc4)cc3C(=O)N([C@@H](C)CO)C[C@@H]2C)cc1` reads -0.047% (inactive); that for `CC1CC(=O)Nc2ccccc2N1S(=O)(=O)c1cccs1` (configuration not stated), -0.177% (inactive); that for `CC(C)CC#Cc1ccc2c(c1)O[C@H](CN(C)Cc1ccncc1)[C@H](C)CN([C@@H](C)CO)S2(=O)=O`, -0.038% (inactive). Consider `COc1ccc(S(=O)(=O)Nc2ccc3c(c2)CC(=O)N([C@H](C)CO)C[C@H](C)[C@@H](CN(C)C(=O)NC2CCCCC2)O3)cc1`, for which the activation was -0.163% (inactive).

Staying with this assay, now noted: HUVEC E-selectin immunostaining, at 21 µM (top of the series), percent of TNF-alpha response over vehicle.
On to `COc1ccc(S(=O)(=O)Nc2ccc3c(c2)C(=O)N([C@@H](C)CO)C[C@H](C)[C@H](CN(C)S(=O)(=O)c2ccc(Cl)cc2)O3)cc1`, for which the activation is 0.145% (inactive). On the same count and under the same terms, the result for `C[C@H]1CN([C@@H](C)CO)C(=O)Cc2cc(NS(C)(=O)=O)ccc2O[C@@H]1CN(C)Cc1ccc(Oc2ccccc2)cc1` reads 4.65% (inactive); that for `C[C@H](CO)N1C[C@H](C)[C@@H](CN(C)S(=O)(=O)c2cccs2)Oc2ccc(NC(=O)CCN3CCOCC3)cc2C1=O`, -0.167% (inactive); that for `C[C@H](CO)N1C[C@H](C)[C@H](CN(C)S(=O)(=O)c2ccc(Cl)cc2)Oc2ccc(NS(=O)(=O)c3ccc(F)cc3)cc2CC1=O`, -0.115% (inactive). The same measure, in the same setting: the result for `C[C@H](CO)N1C[C@H](C)[C@H](CN(C)S(C)(=O)=O)Oc2ccc(NC(=O)C3CCCCC3)cc2C1=O` reads -0.059% (inactive); that for `COc1ccc(CN(C)C[C@H]2Oc3ccc(NC(=O)Nc4c(C)noc4C)cc3C(=O)N([C@@H](C)CO)C[C@H]2C)cc1`, 0.014% (inactive); that for `C[C@@H]1CN([C@@H](C)CO)C(=O)c2cc(NC(=O)CCCCCC(=O)Nc3ccccc3N)ccc2O[C@H]1CN(C)C(=O)Nc1ccc2c(c1)OCO2`, 0.05% (inactive). On the same count and under the same terms, the result for `C[C@H](CO)N1C[C@H](C)[C@H](CN(C)C(=O)c2ccccc2)OCc2ccccc2-c2c(n(C)c3ccccc23)C1=O` reads -0.093% (inactive). On to `CC(C)NC(=O)Nc1ccc2c(c1)CC(=O)N([C@H](C)CO)C[C@H](C)[C@@H](CN(C)Cc1ccc(C(=O)O)cc1)O2`, for which the activation is -0.068% (inactive). Regarding `C[C@H](CO)N1C[C@H](C)[C@H](CN(C)S(=O)(=O)c2ccccc2)Oc2c(NC(=O)C3CCOCC3)cccc2C1=O`, the activation is 3.15% (inactive). On the same count and under the same terms, the result for `CC(C)NC(=O)Nc1ccc2c(c1)CC(=O)N([C@H](C)CO)C[C@@H](C)[C@@H](CN(C)Cc1ccc3c(c1)OCO3)O2` reads -0.173% (inactive); that for `C[C@H]1CN([C@@H](C)CO)C(=O)Cc2cc(NC(=O)Nc3ccc(C(F)(F)F)cc3)ccc2O[C@H]1CN(C)C(=O)Nc1cccc2ccccc12`, 0.822% (inactive). For `C[C@@H]1CN([C@H](C)CO)C(=O)c2cc(NS(=O)(=O)c3cn(C)cn3)ccc2O[C@@H]1CN(C)C(=O)Nc1ccc2c(c1)OCO2`, the activation is -0.098% (inactive).
